Blank lines part the entries; values can stand above or below the compound they belong to. Calls of active or inactive are those of the source. The calls are words filed in the database; no cut-off is given here.
How the values were obtained:
[1] = target: T1, Solute carrier family 12 member 5 (Homo sapiens) (UniProt Q9H2X9); experiment: Antagonist activity at KCC2 expressed in human HEK293 cells assessed as decrease in Tl-stimulated fluorescence increase at 2 uM after 8 mins by fluorescence analysis; format: functional, cell-based
T1 sequence (whole entry): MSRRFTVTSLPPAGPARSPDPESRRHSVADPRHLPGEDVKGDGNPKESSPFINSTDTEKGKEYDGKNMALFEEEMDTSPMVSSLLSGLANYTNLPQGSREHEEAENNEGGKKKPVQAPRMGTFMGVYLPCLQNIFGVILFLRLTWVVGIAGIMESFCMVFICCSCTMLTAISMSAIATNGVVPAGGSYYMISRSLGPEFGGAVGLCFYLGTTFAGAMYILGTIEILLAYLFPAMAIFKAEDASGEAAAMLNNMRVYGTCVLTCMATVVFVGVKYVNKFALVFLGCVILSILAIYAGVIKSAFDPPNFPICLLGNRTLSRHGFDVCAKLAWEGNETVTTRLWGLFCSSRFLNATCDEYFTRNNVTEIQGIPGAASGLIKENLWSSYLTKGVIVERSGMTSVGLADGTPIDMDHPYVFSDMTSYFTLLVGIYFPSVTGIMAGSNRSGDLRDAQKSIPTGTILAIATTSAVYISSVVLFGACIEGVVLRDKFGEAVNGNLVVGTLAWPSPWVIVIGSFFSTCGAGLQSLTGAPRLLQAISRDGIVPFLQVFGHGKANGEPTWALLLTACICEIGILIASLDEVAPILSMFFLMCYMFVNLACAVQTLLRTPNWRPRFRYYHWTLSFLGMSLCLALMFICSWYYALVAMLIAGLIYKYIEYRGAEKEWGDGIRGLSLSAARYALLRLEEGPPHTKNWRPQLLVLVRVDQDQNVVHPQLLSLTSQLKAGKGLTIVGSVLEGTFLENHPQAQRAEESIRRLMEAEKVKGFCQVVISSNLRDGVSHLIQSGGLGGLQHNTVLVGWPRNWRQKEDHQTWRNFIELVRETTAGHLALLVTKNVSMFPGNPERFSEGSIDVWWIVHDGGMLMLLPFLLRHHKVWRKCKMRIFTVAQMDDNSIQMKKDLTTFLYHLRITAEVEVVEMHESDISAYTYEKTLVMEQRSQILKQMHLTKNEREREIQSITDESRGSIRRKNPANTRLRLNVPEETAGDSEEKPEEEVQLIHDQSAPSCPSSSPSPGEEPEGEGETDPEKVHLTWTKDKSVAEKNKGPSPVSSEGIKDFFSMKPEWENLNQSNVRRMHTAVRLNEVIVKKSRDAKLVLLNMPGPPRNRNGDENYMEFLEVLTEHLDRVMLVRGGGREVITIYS

[2] = target: T2, Solute carrier family 12 member 5 (Homo sapiens, UniProt Q9H2X9); experiment: Antagonist activity at KCC2 expressed in human HEK293 cells assessed as decrease in Tl-stimulated fluorescence increase after 8 mins by fluorescence analysis; format: functional, cell-based
T2 sequence (Q9H2X9 whole entry): T1 sequence (whole entry)

Cytochrome P450 3A4 = Cytochrome P450 3A4 (Homo sapiens, UniProt P08684); experiment: Inhibition of CYP3A4 in human liver microsomes; format: ADME, Microsome
Cytochrome P450 2C9 = Cytochrome P450 2C9 (Homo sapiens, UniProt P11712); experiment: Inhibition of CYP2C9 in human liver microsomes; format: ADME, Microsome
Cytochrome P450 1A2 = target: T3, Cytochrome P450 1A2 (Homo sapiens, UniProt P05177); experiment: Inhibition of CYP1A2 in human liver microsomes; format: ADME, Microsome
T3 sequence (P05177 whole entry): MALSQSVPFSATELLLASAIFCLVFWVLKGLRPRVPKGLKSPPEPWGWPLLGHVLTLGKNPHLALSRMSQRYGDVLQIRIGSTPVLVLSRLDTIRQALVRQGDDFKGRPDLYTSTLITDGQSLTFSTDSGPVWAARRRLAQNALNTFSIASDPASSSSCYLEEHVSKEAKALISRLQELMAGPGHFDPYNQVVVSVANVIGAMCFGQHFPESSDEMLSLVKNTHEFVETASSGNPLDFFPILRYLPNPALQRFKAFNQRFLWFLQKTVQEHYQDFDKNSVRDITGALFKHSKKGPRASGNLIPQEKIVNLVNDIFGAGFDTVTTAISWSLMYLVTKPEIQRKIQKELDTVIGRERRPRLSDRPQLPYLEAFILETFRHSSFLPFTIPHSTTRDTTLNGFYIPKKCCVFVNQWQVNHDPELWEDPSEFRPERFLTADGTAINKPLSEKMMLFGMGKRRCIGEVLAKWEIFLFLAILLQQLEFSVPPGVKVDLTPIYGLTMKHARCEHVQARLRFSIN

Cytochrome P450 2D6 = Cytochrome P450 2D6 (Homo sapiens, UniProt P10635); experiment: Inhibition of CYP2D6 in human liver microsomes; format: ADME, Microsome
Plasma [3] = experiment: Fraction unbound in rat plasma; format: ADME, cell-free
Plasma [4] = experiment: Fraction unbound in human plasma; format: ADME, cell-free
[5] = Clearance in rat at 1 mg/kg, iv; format: ADME, organism-based; design: dose 1 mg/kg, route intravenous; conditions: in vivo
[6] = Volume of distribution at steady state in rat at 1 mg/kg, iv; format: ADME, organism-based; design: dose 1 mg/kg, route intravenous; conditions: in vivo, read-out: Vdss
[7] = Half life in rat at 1 mg/kg, iv; format: ADME, organism-based; design: dose 1 mg/kg, route intravenous; conditions: in vivo
[8] = target: T1, Solute carrier family 12 member 5 (Homo sapiens); experiment: Antagonist activity at KCC2 expressed in human HEK293 cells assessed as [86Rb] uptake after 30 mins by scintillation counting; format: functional, cell-based
[9] = target: T4, Solute carrier family 12 member 2 (Homo sapiens, UniProt P55011); experiment: Antagonist activity at […] expressed in human HEK293 cells assessed as [86Rb] uptake after 30 mins by scintillation counting; format: functional, cell-based
T4 sequence (P55011 whole entry): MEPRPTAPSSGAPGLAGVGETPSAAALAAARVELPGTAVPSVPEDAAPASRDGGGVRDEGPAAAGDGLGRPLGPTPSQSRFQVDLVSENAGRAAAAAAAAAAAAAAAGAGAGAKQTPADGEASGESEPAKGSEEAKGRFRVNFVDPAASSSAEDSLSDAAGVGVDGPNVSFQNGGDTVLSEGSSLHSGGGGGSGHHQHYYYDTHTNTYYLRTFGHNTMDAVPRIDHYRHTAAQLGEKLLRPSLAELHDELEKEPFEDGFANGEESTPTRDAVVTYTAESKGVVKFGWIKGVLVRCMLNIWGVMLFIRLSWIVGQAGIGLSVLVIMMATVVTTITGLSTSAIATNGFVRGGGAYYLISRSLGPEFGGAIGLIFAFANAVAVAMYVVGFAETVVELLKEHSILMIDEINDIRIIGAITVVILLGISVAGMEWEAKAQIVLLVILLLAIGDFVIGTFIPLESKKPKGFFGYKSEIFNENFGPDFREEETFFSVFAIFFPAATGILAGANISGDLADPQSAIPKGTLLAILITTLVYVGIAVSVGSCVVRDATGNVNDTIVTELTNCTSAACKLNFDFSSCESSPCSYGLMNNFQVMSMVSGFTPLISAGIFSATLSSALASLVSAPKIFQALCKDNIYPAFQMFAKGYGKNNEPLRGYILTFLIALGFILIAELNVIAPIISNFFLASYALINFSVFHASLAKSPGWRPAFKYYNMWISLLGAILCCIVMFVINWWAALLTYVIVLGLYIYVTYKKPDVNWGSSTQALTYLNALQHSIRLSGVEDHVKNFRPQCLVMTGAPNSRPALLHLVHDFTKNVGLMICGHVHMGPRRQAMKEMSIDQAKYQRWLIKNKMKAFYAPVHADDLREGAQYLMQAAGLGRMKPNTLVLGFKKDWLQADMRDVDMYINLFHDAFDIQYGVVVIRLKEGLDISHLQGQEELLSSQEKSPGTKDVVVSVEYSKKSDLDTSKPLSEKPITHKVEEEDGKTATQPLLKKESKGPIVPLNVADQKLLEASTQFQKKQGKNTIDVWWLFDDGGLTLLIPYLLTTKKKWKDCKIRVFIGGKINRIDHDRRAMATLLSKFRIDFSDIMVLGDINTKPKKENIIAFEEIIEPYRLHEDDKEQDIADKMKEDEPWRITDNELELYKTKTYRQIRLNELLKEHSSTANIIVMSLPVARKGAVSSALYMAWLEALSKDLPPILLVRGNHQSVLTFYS

[10] = target: T5, Solute carrier family 12 member 2 (Homo sapiens) (UniProt P55011); experiment: Antagonist activity at […] expressed in human HEK293 cells assessed as [86Rb] uptake at 50 uM after 30 mins by scintillation counting; format: functional, cell-based; design: scale not given: the % may be the effect or the level left
T5 sequence (whole entry): T4 sequence (P55011 whole entry)

hERG (KCNH2) = hERG (KCNH2) (Homo sapiens, UniProt Q12809); experiment: Inhibition of human Erg at 10 uM
[11] = Inhibition of L-type calcium channel at 10 uM
[12] = Metabolic stability of the compound in rat plasma assessed as compound remaining after 1 hr; format: ADME, cell-free; conditions: read-out: Stability

Sequence of Cytochrome P450 2C9 (P11712 whole entry): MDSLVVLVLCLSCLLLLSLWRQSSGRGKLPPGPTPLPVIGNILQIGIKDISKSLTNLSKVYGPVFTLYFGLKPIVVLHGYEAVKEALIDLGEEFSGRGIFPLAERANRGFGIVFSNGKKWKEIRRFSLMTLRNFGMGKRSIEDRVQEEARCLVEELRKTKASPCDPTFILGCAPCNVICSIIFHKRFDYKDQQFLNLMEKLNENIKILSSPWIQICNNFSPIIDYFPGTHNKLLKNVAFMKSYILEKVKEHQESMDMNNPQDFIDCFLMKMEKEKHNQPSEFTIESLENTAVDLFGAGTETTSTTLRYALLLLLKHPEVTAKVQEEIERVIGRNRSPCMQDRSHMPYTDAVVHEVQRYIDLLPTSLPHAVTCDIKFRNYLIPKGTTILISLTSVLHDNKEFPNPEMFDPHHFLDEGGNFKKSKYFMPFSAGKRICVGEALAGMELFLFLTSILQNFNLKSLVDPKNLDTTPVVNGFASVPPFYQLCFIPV
Sequence of Cytochrome P450 2D6 (P10635 whole entry): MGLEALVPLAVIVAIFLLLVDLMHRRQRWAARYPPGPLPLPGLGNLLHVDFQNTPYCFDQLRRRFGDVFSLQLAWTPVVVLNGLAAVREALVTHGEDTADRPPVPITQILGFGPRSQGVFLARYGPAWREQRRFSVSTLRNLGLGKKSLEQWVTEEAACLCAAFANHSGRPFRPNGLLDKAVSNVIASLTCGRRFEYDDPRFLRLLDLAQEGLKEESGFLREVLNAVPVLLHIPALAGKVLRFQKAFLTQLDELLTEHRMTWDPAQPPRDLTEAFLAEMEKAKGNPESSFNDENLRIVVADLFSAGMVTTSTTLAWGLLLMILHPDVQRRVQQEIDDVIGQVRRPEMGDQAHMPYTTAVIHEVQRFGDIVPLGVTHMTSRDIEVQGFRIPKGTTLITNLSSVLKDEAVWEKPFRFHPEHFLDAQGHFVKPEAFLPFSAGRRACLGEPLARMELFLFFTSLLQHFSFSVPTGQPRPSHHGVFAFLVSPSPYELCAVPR
Sequence of hERG (KCNH2) (Q12809 whole entry): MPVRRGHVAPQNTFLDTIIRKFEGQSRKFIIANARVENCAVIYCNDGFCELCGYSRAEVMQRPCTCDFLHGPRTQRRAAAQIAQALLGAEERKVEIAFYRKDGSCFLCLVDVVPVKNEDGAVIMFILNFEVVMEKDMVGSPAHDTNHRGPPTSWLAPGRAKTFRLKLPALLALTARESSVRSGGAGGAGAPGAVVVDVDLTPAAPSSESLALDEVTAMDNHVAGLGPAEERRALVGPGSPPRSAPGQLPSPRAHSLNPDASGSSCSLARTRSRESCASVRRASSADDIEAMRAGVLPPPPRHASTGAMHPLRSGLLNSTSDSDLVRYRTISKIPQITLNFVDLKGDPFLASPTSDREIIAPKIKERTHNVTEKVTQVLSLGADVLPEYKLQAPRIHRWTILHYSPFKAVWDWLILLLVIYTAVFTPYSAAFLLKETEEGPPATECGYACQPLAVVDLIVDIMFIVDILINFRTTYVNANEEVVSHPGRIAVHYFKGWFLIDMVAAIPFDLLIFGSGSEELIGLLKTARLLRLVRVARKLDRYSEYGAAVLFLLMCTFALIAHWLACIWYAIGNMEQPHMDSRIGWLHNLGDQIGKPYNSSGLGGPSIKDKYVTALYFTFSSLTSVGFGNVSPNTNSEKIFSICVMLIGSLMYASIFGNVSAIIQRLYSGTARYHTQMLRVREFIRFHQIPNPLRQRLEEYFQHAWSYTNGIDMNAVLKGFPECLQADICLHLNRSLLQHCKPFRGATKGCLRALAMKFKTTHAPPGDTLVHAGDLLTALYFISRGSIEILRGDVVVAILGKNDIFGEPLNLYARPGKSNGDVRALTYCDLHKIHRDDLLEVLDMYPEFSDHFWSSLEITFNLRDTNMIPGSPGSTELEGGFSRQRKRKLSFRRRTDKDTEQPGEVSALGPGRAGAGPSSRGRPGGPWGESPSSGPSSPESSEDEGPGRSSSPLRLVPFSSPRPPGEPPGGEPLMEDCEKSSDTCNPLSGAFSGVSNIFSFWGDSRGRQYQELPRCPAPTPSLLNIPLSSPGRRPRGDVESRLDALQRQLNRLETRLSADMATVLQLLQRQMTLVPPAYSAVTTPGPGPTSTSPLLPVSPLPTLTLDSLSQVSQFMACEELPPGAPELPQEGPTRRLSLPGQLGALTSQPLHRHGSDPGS
Sequence of Cytochrome P450 3A4 (P08684 whole entry): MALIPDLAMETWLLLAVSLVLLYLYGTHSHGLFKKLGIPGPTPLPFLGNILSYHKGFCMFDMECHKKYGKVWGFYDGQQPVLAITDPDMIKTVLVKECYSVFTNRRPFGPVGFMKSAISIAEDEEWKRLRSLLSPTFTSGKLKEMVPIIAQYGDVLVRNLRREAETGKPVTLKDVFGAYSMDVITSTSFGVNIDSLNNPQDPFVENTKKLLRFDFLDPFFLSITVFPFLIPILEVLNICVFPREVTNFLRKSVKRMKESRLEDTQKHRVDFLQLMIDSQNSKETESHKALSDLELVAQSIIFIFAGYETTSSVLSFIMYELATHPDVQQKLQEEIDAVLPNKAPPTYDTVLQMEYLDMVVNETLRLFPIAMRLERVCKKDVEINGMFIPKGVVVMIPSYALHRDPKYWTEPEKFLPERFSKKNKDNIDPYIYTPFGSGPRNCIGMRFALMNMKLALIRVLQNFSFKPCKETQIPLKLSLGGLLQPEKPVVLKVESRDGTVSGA

SMILES: Cc1csc(N(C)C(=O)CSc2ccc(-c3ccccc3)cn2)n1
IC50 [2]: 2900 nM

SMILES: Cc1csc(NC(=O)CSc2ccc(-c3ccccc3)cn2)n1
IC50 [2]: 6900 nM

SMILES: Cc1csc(N(C(=O)CSc2ccc(-c3ccccc3)nn2)C2CCCC2)n1
IC50 [2]: 1060 nM

SMILES: Cc1csc(N(C(=O)CSc2ccc(-c3ccccc3)nn2)C2CCC2)n1
IC50 [2]: 177 nM

SMILES: O=C(Cn1cnc2c(nnn2Cc2ccccc2)c1=O)c1ccc(Cl)cc1
IC50 [2]: 1200 nM
Activity [10]: 40%

SMILES: Cc1csc(NC(=O)CSc2ccc(-c3ccccc3)nn2)n1
IC50 [2]: 568 nM
inhibition at 10 µM (hERG (KCNH2)): > 50%
inhibition [11]: > 50%
IC50 [9]: > 50000 nM

Further lines, results first:

inhibition [1]: 84%
SMILES: CCC(Sc1ccc(-c2ccccc2)nn1)C(=O)N(c1nc(C)cs1)C1CC1 (racemic) [listing 1 of 2 here]

inhibition [1]: 45%
SMILES: CCC(Sc1ccc(-c2ccccc2)nn1)C(=O)N(CC)c1nc(C)cs1 (racemic)

inhibition [1]: 27%
SMILES: CCC(Sc1ccc(-c2ccccc2)nn1)C(=O)N(C)c1nc(C)cs1 (racemic)

inhibition [1]: 82%
IC50 [2]: 537 nM
IC50 (Cytochrome P450 3A4): > 30000 nM
IC50 (Cytochrome P450 2C9): > 30000 nM
IC50 (Cytochrome P450 1A2): > 30000 nM
IC50 (Cytochrome P450 2D6): 24000 nM
Fu (Plasma [3]): 1%
Fu (Plasma [4]): 2%
clearance [5]: 185 mL/min/kg
Vd [6]: 5 L/kg
half-life [7]: 26 min
Activity [8]: Active
IC50 [9]: > 50000 nM
SMILES: Cc1csc(N(C)C(=O)CSc2ccc(-c3ccccc3)nn2)n1

inhibition [1]: 57%
SMILES: CCN(C(=O)C(C)Sc1ccc(-c2ccccc2)nn1)c1nc(C)cs1 (racemic)

inhibition [1]: 46%
SMILES: Cc1csc(N(C)C(=O)C(C)Sc2ccc(-c3ccccc3)nn2)n1 (racemic)

IC50 [2]: 385 nM
SMILES: CCC(Sc1ccc(-c2ccccc2)nn1)C(=O)N(c1nc(C)cs1)C1CC1 (single isomer, unassigned; (+))

inhibition [1]: 40%
SMILES: CCC(Sc1ccc(-c2ccccc2)nn1)C(=O)N(c1nc(C)cs1)C1CC1 (single isomer, unassigned; (-))

IC50 [2]: 756 nM
SMILES: CCC(Sc1ccc(-c2ccccc2)nn1)C(=O)N(c1nc(C)cs1)C1CC1 (racemic) [listing 2 of 2 here]

IC50 [2]: 61 nM
IC50 (Cytochrome P450 2C9): > 30000 nM
IC50 (Cytochrome P450 1A2): 20000 nM
IC50 (Cytochrome P450 2D6): > 30000 nM
clearance [5]: 57 mL/min/kg
Vd [6]: 0.4 L/kg
half-life [7]: 9 min
Activity [8]: Active
remaining at 1 h [12]: 6%
SMILES: Cc1csc(N(C(=O)CSc2ccc(-c3ccccc3)nn2)C2CC2)n1

From ChEMBL document CHEMBL2046355 (Bioorg Med Chem Lett, 2012)
